# Experimental data reported in US20150202196A1, “Methods of Using C-Met Modulators” (priority 2010, published 2015).
# Legend:
# [1] = system: primary human pancreatic cancer; assay: Orthotopic implants of primary human pancreatic cancer in the pancreatic tail of NOD/SCID mice: bioluminescent tumor growth and cancer stem cells; type: in vivo; details: for effect on cancer stem cell population (in words): CD44+CD24+ESA+; for effect on cancer stem cell population (in words) / % of CD44+CD24+ESA+ cancer stem cells in tumor: flow cytometry; for % of CD44+CD24+ESA+ cancer stem cells in tumor: table title says subcutaneous xenograft tumor, text cites it for orthotopic implants; for tumor growth during the 4 week treatment: orthotopic tumors, bioluminescent imaging, versus controls
# Experimental: Sorted cells or bulk pancreatic tumor cells were washed with serum free HBSS and suspended in serum free-RPMI1640/Matrigel mixture (1:1 volume), followed by injection into the subcutaneous tissue of the right and left mid-abdominal area using a 27-gauge needle. In separate experiments, mice were anesthetized with an i.p. injection of 100 mg/kg ketamine and 5 mg/kg xylazine, and a small median laparotomy was performed. Five thousand sorted cells or 1-5×10^5 bulk tumor cells resuspended in PBS/Matrigel mixture (1:1) in a volume of 100 µl were injected into the tail of the pancreas using a 30-gauge needle. […] Animals then underwent autopsy, and tumor growth was accessed after 4 to 8 weeks.
# To validate the findings with bioluminescent imaging, mice were euthanized with carbon dioxide inhalation, and autopsies were performed to assess the extent of primary tumor growth and metastasis.
# The same three pancreatic cancers used for the subcutaneous tumor implantation experiments were infected with a lentivirus expressing luciferase to allow imaging in real time, and cells were injected into the pancreatic tail.
# Tumor size and volume were measured weekly using Xenogen IVIS 200 imaging system throughout the experiment period.
# [2] = system: human pancreatic adenocarcinomas; type: in vivo; details: for % of CD44+c-Met+ cancer stem cells in tumor: flow cytometry after 4 weeks treatment; for tumor growth during the 4 week period of treatment: subcutaneous tumor volume, weekly, FIG. 8B; for effect on cancer stem cell population (in words): CD44+c-Met+, flow cytometry; for tumor growth following cessation of treatment: versus untreated tumors
# Experimental: Samples of human pancreatic adenocarcinomas were obtained. Within 60 minutes following surgical resection, tumors were suspended in sterile RPMI medium 1640 (available from Sigma-Aldrich®), mechanically dissociated using scissors, then minced with a sterile scalpel blade over ice to yield 2×2 mm pieces. The tumor pieces were washed with serum-free PBS before implantation. Eight-week-old male NOD/SCID mice were anesthetized using an i.p. injection of 100 mg/kg ketamine and 5 mg/kg xylazine. NOD/SCID mice are publically available from Charles River Laboratories International in Wilmington, Mass. A 5-mm incision was then made in the skin overlying the mid-abdomen, and three pieces of tumor were implanted subcutaneously. The skin incision was closed with absorbable suture. The mice were monitored weekly for tumor growth for 16 to 20 weeks. After establishment of xenografts, studies were performed on passage 2 tumors.
# Xenograft tumors or primary human tumors were cut up into small pieces with scissors, and then minced completely using sterile scalpel blades. To obtain single cell suspensions, the resultant minced tumor pieces were mixed with ultra-pure collagenase IV (Worthington Biochemical, Lakewood, N.J.) in medium 199 (200 units of collagenase per ml) and allowed to incubate at 37° C. for 1 to 1.5 hours for enzymatic dissociation. The specimens were further mechanically dissociated every 10 minutes by pipetting with a 10-ml pipette. At the end of the incubation, cells were filtered through a 40-μm nylon mesh, washed with HBSS/20% FBS, and then washed twice with HBSS.
# Sorted cells or bulk pancreatic tumor cells were washed with serum free HBSS and suspended in serum free-RPMI1640/Matrigel mixture (1:1 volume), followed by injection into the subcutaneous tissue of the right and left mid-abdominal area using a 27-gauge needle. In separate experiments, mice were anesthetized with an i.p. injection of 100 mg/kg ketamine and 5 mg/kg xylazine, and a small median laparotomy was performed. Five thousand sorted cells or 1-5×10^5 bulk tumor cells resuspended in PBS/Matrigel mixture (1:1) in a volume of 100 µl were injected into the tail of the pancreas using a 30-gauge needle. PBS stands for phosphate buffered saline, which can be obtained from Thermo Fisher Scientific Inc. Six mice were inoculated per test group. Animals then underwent autopsy, and tumor growth was accessed after 4 to 8 weeks. Tissues were fixed in formaldehyde and were examined histologically or dissociated to generate single cell suspensions for further study.
# […]. CD44 and c-Met are both markers on pancreatic cancer stem cells.
# . Subcutaneous tumor volume was assessed weekly. […] Half of the mice in each group were euthanized 4 weeks after initiation of treatment, and the tumors were dissociated and examined using flow cytometry to determine the percentage of c-Met+/CD44+ cancer stem cells within the tumors. The remaining mice were kept for an additional 8 weeks following cessation of treatment, and tumor volume was measured weekly. […]. […]. […]
# Tumor size was measured weekly. Three mice of each group were euthanized after 4 weeks treatment for analysis of cancer stem cells, and the other mice were followed to monitor tumor growth for an additional 8 weeks. […] In FIG. 8B, the average tumor size±SEM from three separate tumors is presented. FIG. 8C depicts a graph of CSC percentage in different treatment groups. The percentage of the c-Met+/CD44+ tumorigenic cancer cell population in the total cancer cell population is indicated for each treatment.
# [3] = Compound 1 30 mg/kg/day, GEM 100 mg/kg/twice weekly
SMILES,effect on cancer stem cell population (in words) [1],% of CD44+CD24+ESA+ cancer stem cells in tumor [1] [%],tumor growth during the 4 week treatment [1],"% of CD44+c-Met+ cancer stem cells in tumor [2, 3] [%]",tumor growth during the 4 week period of treatment [2],"decrease in CD44+c-Met+ cancer stem cell population ([2]; subcutaneous tumors, 4 weeks treatment, Compound 1 30 mg/kg/day, GEM 100 mg/kg/twice weekly) [%]",effect on cancer stem cell population (in words) ([2]; subcutaneous tumors),tumor growth following cessation of treatment ([2]; subcutaneous tumors),"increase of the c-Met+CD44+ population ([2]; subcutaneous tumors, 4 weeks treatment, GEM 100 mg/kg/twice weekly) [%]"
"COc1cc2nccc(Oc3ccc(NC(=O)C4(C(=O)Nc5ccc(F)cc5)CC4)cc3)c2cc1OC [Compound 1, N-(4-{[6,7-bis(methyloxy)quinolin-4-yl]oxy}phenyl)-N′-(4-fluorophenyl)cyclopropane-1,1-dicarboxamide]",significantly depleted,0.61,prevented tumor growth,0.55,significantly inhibited tumor growth,83±3,significantly depleted,grew more slowly than the untreated tumors,–
"Nc1ccn([C@@H]2O[C@H](CO)[C@@H](O)C2(F)F)c(=O)n1 [GEM, gemcitabine]",increases in the total number of pancreatic cancer stem cells,4.3,prevented tumor growth,4.34,significantly inhibited tumor growth,–,increases in the total number of pancreatic cancer stem cells,grew more slowly than the untreated tumors,48±20
